Consider one molecule from ChEMBL document CHEMBL1151413 (J Nat Prod, 1983).

Active and inactive are the calls of the source. The calls are words filed in the database; no cut-off is given here.

For test [1], the system named is Ileum. The test is described as follows: Inhibition of acetylcholine-induced guinea pig ileum contraction at 5 ug/ml after 15 mins. It is filed as functional, tissue-based. The settings on record: Cavia porcellus.
Test [2] concerns Ileum. The test is described as follows: Inhibition of acetylcholine-induced guinea pig ileum contraction at 10 ug/ml after 15 mins. It is filed as functional, tissue-based. The settings on record: Cavia porcellus.
Test [3] concerns Ileum. Put plainly: Inhibition of acetylcholine-induced guinea pig ileum contraction assessed as residual activity at 5 ug/ml after 30 to 50 mins relative to control. It is filed as functional, Cavia porcellus.
Test [4] relates to Ileum. Put plainly: Inhibition of acetylcholine-induced guinea pig ileum contraction assessed as residual activity at 10 ug/ml after 30 to 50 mins relative to control. It is filed as functional, Cavia porcellus.
Test [5] concerns Ileum. The test is described as follows: Inhibition of histamine-induced guinea pig ileum contraction. The conditions noted are these: Cavia porcellus, read-out: pA2 (converted).
The test system of test [6] is Ileum. The test is described as follows: Inhibition of BaCl2-induced guinea pig ileum contraction at 10 ug/ml after 15 mins. The format is functional, tissue-based. The conditions noted are these: Cavia porcellus.
Test [7] concerns Ileum. The test is described as follows: Inhibition of acetylcholine-induced guinea pig ileum contraction. The conditions noted are these: Cavia porcellus, TDE = time-dependent effect. It is filed as functional, tissue-based.
The test system of test [8] is Ileum. Put plainly: Inhibition of coaxially-induced guinea pig ileum contraction at 10 ug/ml. It is filed as functional, tissue-based. The conditions noted are these: Cavia porcellus, TDE = time-dependent effect.
For test [9], the system named is Platelet. Put plainly: Antiaggregation activity against ADP-induced rabbit platelet aggregation at 10 ug/ml. The settings on record: Oryctolagus cuniculus, TDE = time-dependent effect. It is filed as functional, cell-based.
Test [10] concerns Platelet. The test is described as follows: Antiaggregation activity against arachidonic acid-induced rabbit platelet aggregation at 10 ug/ml. The format is functional, cell-based. The conditions noted are these: Oryctolagus cuniculus, TDE = time-dependent effect.
Test [11] concerns Platelet. The test is described as follows: Disaggregation activity against ADP-induced rabbit platelet aggregation at 10 ug/ml relative to ADP response. The format is functional, cell-based. The conditions noted are these: Oryctolagus cuniculus.
The subject of test [12] is Platelet. Put plainly: Disaggregation activity against arachidonic acid-induced rabbit platelet aggregation at 10 ug/ml relative to arachidonic acid response. It is filed as functional, cell-based. The settings on record: Oryctolagus cuniculus.

Turning to `C=C[C@@]12COC(=O)C(=C)[C@@H]1[C@H]1OC(=O)C(=C)[C@@H]1[C@@H](O)C2` [VERNOLEPIN], the outcome in test [1], in test [2] and in test [6] was inactive. Further, the Activity in [3] was <40%; in test [4] it was <20%; in test [7] it was “tde”; in test [8], “tde”; in [9], “tde”; in [10], “tde”. For the same molecule, in test [5], the Kb was 2.45 µM. In addition, the outcome in test [11] and in [12] was Active.
